In the assay the target is T1, elastase from porcine pancreas (Sus scrofa, UniProt P00772).
T1 construct: gene CELA1; commercial native porcine pancreatic elastase (Sigma Aldrich)
Description: N-Succinyl-Ala-Ala-Ala-p-nitroanilide hydrolysis, absorbance at […] nm. Type of assay: biochemical. The following applies: read-out: IC50 (μg/mL) / Elastase (converted).

T1 sequence (P00772 27-266): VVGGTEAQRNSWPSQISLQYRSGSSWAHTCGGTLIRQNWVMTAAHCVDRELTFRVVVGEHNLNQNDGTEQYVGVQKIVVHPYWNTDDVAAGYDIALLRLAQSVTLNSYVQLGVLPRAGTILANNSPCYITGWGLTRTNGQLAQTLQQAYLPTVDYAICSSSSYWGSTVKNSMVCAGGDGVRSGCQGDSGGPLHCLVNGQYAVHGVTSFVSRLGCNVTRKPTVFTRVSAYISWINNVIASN

In the case of `O=C(O[C@@H]1Cc2c(O)cc(O)cc2O[C@@H]1c1cc(O)c(O)c(O)c1)c1cc(O)c(O)c(O)c1` [Epigallocatechin gallate], the IC50 is 505 µM.

For the origin of these results see article PMC11148373, “Cubeb (Piper cubeba L.): nutritional value, phytochemical profiling and dermacosmeceutical properties” (Frontiers in Nutrition, 2024).
